The values that follow come from patent EP4813999A1, “NOVEL PEPTIDE DERIVATIVE AND PHARMACEUTICAL COMPOSITION FOR PREVENTING OR TREATING MACULAR DEGENERATION COMPRISING SAME” (Supadelixir Inc., priority 2023, dated 2026).

The test system of test [1] is CNV-induced male chinchilla rabbits. Put plainly: Macular degeneration animal model: laser-induced CNV, retinal fluorescein fundus imaging. The test is classed as in vivo. Conditions: instillation 50 µL twice daily, Day 7 and Day 14, versus induced control group (G1). From the text:
As a macular degeneration animal model, CNV-induced male chinchilla rabbits were used. The efficacy test using the CNV animal model was commissioned to HLB Biostep Co., Ltd. (formerly Notus Co., Ltd.). In order to induce CNV formation, a mydriatic agent (Mydriacyl 1% eye drops) was instilled into the right eye of each chinchilla rabbit, followed by anesthesia. Thereafter, the right eye was irradiated using a laser (LIGHTLas 532, LIGHTMED, USA) under conditions of a wavelength of 532 nm and a power of 150 mW for 0.1 seconds, thereby creating six wounds in the 6 o'clock direction centered on the optic nerve.
An induced control group (G1) was repeatedly administered 0.9% aqueous sodium chloride solution (vehicle) by instillation twice daily. […]
After initiation of administration to each group, a mydriatic agent (Mydriacyl 1% eye drops) was instilled into the right eye of each animal on Day 0, Day 7, and Day 14, followed by anesthesia. […] Confirmation of retinal CNV and evaluation of pharmacological efficacy were performed using retinal fluorescein fundus images, and image analysis was performed using the ImageJ software (NIH, Bethesda, MD) to analyze fluorescence intensity at irradiated sites.
Assuming normality for the results of the present test, significance between test groups was analyzed using parametric one-way analysis of variance (one-way ANOVA). […]

Another test deals with ARPE19 cells. The test can be described thus: Hydrogen peroxide-induced apoptosis (phosphatidylserine / CytoCalcein Violet 450 staining). Conditions: 200 µM hydrogen peroxide, test substance 0.01, 0.1, 1 µM, 24 hours. The test is classed as cell-based, Human. How it is done:
Human retinal pigment epithelial cells (ARPE19) were cultured in a humidified incubator with 5% CO2 at 37°C. DMEM/F12 (Gibco) containing 10% fetal bovine serum and penicillin (100 U/ml)/streptomycin ([…]) was used as medium. The cells were cultured with the medium replaced with fresh medium every other day and were passaged using 0.25% trypsin containing 0.02% ethylenediaminetetraacetic acid (EDTA).
After apoptosis was induced in ARPE19 cells using hydrogen peroxide (H2O2), the test substance (SE101B2L) was added at varying concentrations to evaluate inhibitory effects against apoptosis. Inhibitory effects against apoptosis were measured using phosphatidylserine (PS), which is exposed on the surface of apoptotic cells.
ARPE19 cells were seeded into a 24-well microplate containing coverslips at 1 × 10^6 cells/well and cultured in an incubator with 5% CO2 at 37°C for 24 hours. When approximately 80% confluency was reached, the test substance was added to each treatment group at concentrations of 0, 0.01, 0.1, and 1 µM, together with 200 µM hydrogen peroxide, followed by incubation for 24 hours. […] Emission signals detected from each cell were measured using a digital fluorescence microscope (CELENA S digital imaging system, Logos Biosystems, Korea) to quantify apoptotic cells and live cells.

Take “decylbenzoyl-Cys-Phe-Lys-amide [SE101B2L]”: in test [1] (G3: 3750 ppm), the retinal fluorescence intensity result was “statistically significantly lower than those in the induced control group (G1) (p < 0.001)”. Moreover, the retinal fluorescence intensity result in test [1] (G4: 187.5 ppm) was “statistically significantly lower than those in the induced control group (G1) (p < 0.001)”. Further, in the test with ARPE19 cells, the “apoptotic cells (green)” value is listed as “apoptotic cells (green) decrease” and the “live cells (blue)” value is “live cells (blue) increase in a concentration-dependent manner”.
